Laboratory results from the supplement of paper PMC10307832.

Tests used:
Assay in all cases: relative viability (nuclei count vs DMSO), 5 days (fraction); higher = more cells survive
ABC-1 = tested on: ABC-1
Method in brief: (§1)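 Lung cancer cell lines in 1536-well plates got either a single drug or a fixed anchor-drug dose together with five library-drug doses (not always all listed) in √10 steps, by pin tool, on the day after seeding. Nuclei were counted after 5 days, and relative viability is the treated-to-vehicle ratio of nuclei counts. Values are medians of duplicate plates.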

CAL-12T = tested on: CAL-12T
Method in brief: as §1

ChaGo-K-1 = tested on: ChaGo-K-1
Method in brief: as §1

HCC-366 = tested on: HCC-366
Method in brief: as §1

HCC-78 = tested on: HCC-78
Method in brief: as §1

LC-2-ad = tested on: LC-2-ad
Method in brief: as §1

LOU-NH91 = tested on: LOU-NH91
Method in brief: as §1

LU99A = tested on: LU99A
Method in brief: as §1

NCI-H1395 = tested on: NCI-H1395
Method in brief: as §1

NCI-H1651 = tested on: NCI-H1651
Method in brief: as §1

NCI-H1755 = tested on: NCI-H1755
Method in brief: as §1

NCI-H1793 = tested on: NCI-H1793
Method in brief: as §1

NCI-H1944 = tested on: NCI-H1944
Method in brief: as §1

NCI-H2087 = tested on: NCI-H2087
Method in brief: as §1

NCI-H2170 = tested on: NCI-H2170
Method in brief: as §1

NCI-H2228 = tested on: NCI-H2228
Method in brief: as §1

NCI-H2405 = tested on: NCI-H2405
Method in brief: as §1

NCI-H3122 = tested on: NCI-H3122
Method in brief: as §1

NCI-H460 = tested on: NCI-H460
Method in brief: as §1

PC-3 [JPC-3] = tested on: PC-3 [JPC-3]
Method in brief: as §1

RERF-LC-KJ = tested on: RERF-LC-KJ
Method in brief: as §1

UMC-11 = tested on: UMC-11
Method in brief: as §1

Nc1ccn([C@@H]2O[C@H](CO)[C@@H](O)[C@@H]2O)c(=O)n1 [Cytarabine] + O=C(CCCCCCC(=O)Nc1ccccc1)NO [Vorinostat] (partner 1 µM)
relative viability (ABC-1; first compound 0.005 µM): 0.934 | relative viability (ABC-1; first compound 0.01581 µM): 0.995 | relative viability (ABC-1; first compound 0.05 µM): 0.972 | relative viability (ABC-1; first compound 0.1581 µM): 0.933 | relative viability (ABC-1; first compound 0.5 µM): 0.744 | relative viability (CAL-12T; first compound 0.005 µM): 0.53 | relative viability (CAL-12T; first compound 0.01581 µM): 0.68 | relative viability (CAL-12T; first compound 0.05 µM): 0.739 | relative viability (CAL-12T; first compound 0.1581 µM): 0.477 | relative viability (CAL-12T; first compound 0.5 µM): 0.27 | relative viability (ChaGo-K-1; first compound 0.005 µM): 0.673 | relative viability (ChaGo-K-1; first compound 0.01581 µM): 0.649 | relative viability (ChaGo-K-1; first compound 0.05 µM): 0.471 | relative viability (ChaGo-K-1; first compound 0.1581 µM): 0.408 | relative viability (ChaGo-K-1; first compound 0.5 µM): 0.288 | relative viability (HCC-366; first compound 0.005 µM): 0.31 | relative viability (HCC-366; first compound 0.01581 µM): 0.347 | relative viability (HCC-366; first compound 0.05 µM): 0.301 | relative viability (HCC-366; first compound 0.1581 µM): 0.087 | relative viability (HCC-366; first compound 0.5 µM): 0.0576 | relative viability (HCC-78; first compound 0.005 µM): 0.498 | relative viability (HCC-78; first compound 0.01581 µM): 0.471 | relative viability (HCC-78; first compound 0.05 µM): 0.402 | relative viability (HCC-78; first compound 0.1581 µM): 0.348 | relative viability (HCC-78; first compound 0.5 µM): 0.263 | relative viability (LC-2-ad; first compound 0.005 µM): 0.766 | relative viability (LC-2-ad; first compound 0.01581 µM): 0.691 | relative viability (LC-2-ad; first compound 0.05 µM): 0.67 | relative viability (LC-2-ad; first compound 0.1581 µM): 0.646 | relative viability (LC-2-ad; first compound 0.5 µM): 0.436 | relative viability (LOU-NH91; first compound 0.005 µM): 0.857 | relative viability (LOU-NH91; first compound 0.01581 µM): 0.917 | relative viability (LOU-NH91; first compound 0.05 µM): 0.806 | relative viability (LOU-NH91; first compound 0.1581 µM): 0.772 | relative viability (LOU-NH91; first compound 0.5 µM): 0.676 | relative viability (LU99A; first compound 0.005 µM): 0.451 | relative viability (LU99A; first compound 0.01581 µM): 0.468 | relative viability (LU99A; first compound 0.05 µM): 0.554 | relative viability (LU99A; first compound 0.1581 µM): 0.455 | relative viability (LU99A; first compound 0.5 µM): 0.375 | relative viability (NCI-H1395; first compound 0.005 µM): 0.692 | relative viability (NCI-H1395; first compound 0.01581 µM): 0.586 | relative viability (NCI-H1395; first compound 0.05 µM): 0.5 | relative viability (NCI-H1395; first compound 0.1581 µM): 0.357 | relative viability (NCI-H1395; first compound 0.5 µM): 0.349 | relative viability (NCI-H1651; first compound 0.005 µM): 0.585 | relative viability (NCI-H1651; first compound 0.01581 µM): 0.535 | relative viability (NCI-H1651; first compound 0.05 µM): 0.242 | relative viability (NCI-H1651; first compound 0.1581 µM): 0.489 | relative viability (NCI-H1651; first compound 0.5 µM): 0.417 | relative viability (NCI-H1755; first compound 0.005 µM): 0.823 | relative viability (NCI-H1755; first compound 0.01581 µM): 0.794 | relative viability (NCI-H1755; first compound 0.05 µM): 0.685 | relative viability (NCI-H1755; first compound 0.1581 µM): 0.502 | relative viability (NCI-H1755; first compound 0.5 µM): 0.375 | relative viability (NCI-H1793; first compound 0.005 µM): 0.631 | relative viability (NCI-H1793; first compound 0.01581 µM): 0.607 | relative viability (NCI-H1793; first compound 0.05 µM): 0.643 | relative viability (NCI-H1793; first compound 0.1581 µM): 0.352 | relative viability (NCI-H1793; first compound 0.5 µM): 0.186 | relative viability (NCI-H1944; first compound 0.005 µM): 0.508 | relative viability (NCI-H1944; first compound 0.01581 µM): 0.326 | relative viability (NCI-H1944; first compound 0.05 µM): 0.309 | relative viability (NCI-H1944; first compound 0.1581 µM): 0.203 | relative viability (NCI-H1944; first compound 0.5 µM): 0.159 | relative viability (NCI-H2087; first compound 0.005 µM): 0.416 | relative viability (NCI-H2087; first compound 0.01581 µM): 0.961 | relative viability (NCI-H2087; first compound 0.05 µM): 0.598 | relative viability (NCI-H2087; first compound 0.1581 µM): 0.288 | relative viability (NCI-H2087; first compound 0.5 µM): 0.308 | relative viability (NCI-H2170; first compound 0.005 µM): 0.823 | relative viability (NCI-H2170; first compound 0.01581 µM): 0.65 | relative viability (NCI-H2170; first compound 0.05 µM): 0.621 | relative viability (NCI-H2170; first compound 0.1581 µM): 0.4 | relative viability (NCI-H2170; first compound 0.5 µM): 0.314 | relative viability (NCI-H2228; first compound 0.005 µM): 0.472 | relative viability (NCI-H2228; first compound 0.01581 µM): 0.275 | relative viability (NCI-H2228; first compound 0.05 µM): 0.197 | relative viability (NCI-H2228; first compound 0.1581 µM): 0.106 | relative viability (NCI-H2228; first compound 0.5 µM): 0.0947 | relative viability (NCI-H2405; first compound 0.005 µM): 1.02 | relative viability (NCI-H2405; first compound 0.01581 µM): 0.748 | relative viability (NCI-H2405; first compound 0.05 µM): 0.624 | relative viability (NCI-H2405; first compound 0.1581 µM): 0.43 | relative viability (NCI-H2405; first compound 0.5 µM): 0.374 | relative viability (NCI-H3122; first compound 0.005 µM): 0.938 | relative viability (NCI-H3122; first compound 0.01581 µM): 0.914 | relative viability (NCI-H3122; first compound 0.05 µM): 0.894 | relative viability (NCI-H3122; first compound 0.1581 µM): 0.695 | relative viability (NCI-H3122; first compound 0.5 µM): 0.293 | relative viability (NCI-H460; first compound 0.005 µM): 0.422 | relative viability (NCI-H460; first compound 0.01581 µM): 0.436 | relative viability (NCI-H460; first compound 0.05 µM): 0.259 | relative viability (NCI-H460; first compound 0.1581 µM): 0.0538 | relative viability (NCI-H460; first compound 0.5 µM): 0.0412 | relative viability (PC-3 [JPC-3]; first compound 0.005 µM): 0.78 | relative viability (PC-3 [JPC-3]; first compound 0.01581 µM): 0.775 | relative viability (PC-3 [JPC-3]; first compound 0.05 µM): 0.546 | relative viability (PC-3 [JPC-3]; first compound 0.1581 µM): 0.466 | relative viability (PC-3 [JPC-3]; first compound 0.5 µM): 0.592 | relative viability (RERF-LC-KJ; first compound 0.005 µM): 0.569 | relative viability (RERF-LC-KJ; first compound 0.01581 µM): 0.66 | relative viability (RERF-LC-KJ; first compound 0.05 µM): 0.513 | relative viability (RERF-LC-KJ; first compound 0.1581 µM): 0.474 | relative viability (RERF-LC-KJ; first compound 0.5 µM): 0.393 | relative viability (UMC-11; first compound 0.005 µM): 0.285 | relative viability (UMC-11; first compound 0.01581 µM): 0.308 | relative viability (UMC-11; first compound 0.05 µM): 0.258 | relative viability (UMC-11; first compound 0.1581 µM): 0.19 | relative viability (UMC-11; first compound 0.5 µM): 0.183
